Test results: patent US20210179585A1, “CRYSTAL FORM OF ABEMACICLIB MESYLATE, PREPARATION METHOD THEREFOR AND PHARMACEUTICAL COMPOSITION THEREOF” (Hangzhou SoliPharma Co., Ltd., priority 2018, published 2021)

Experiment: Form stability experiment of crystalline forms (XRD crystalline form test after storage)
Format: physicochemical
Conditions: for Test result after 30 day (XRD crystalline form): 20 mg placed at 60° C. or at room temperature under dry conditions for 30 days; for form stability on storage (form kept or changed, appearance): one month in a dry environment at room temperature and at 60° C.
Experimental: X-ray powder diffraction (XRPD): performed on a Bruker D8 Advance diffractometer. Samples are tested at room temperature. Testing conditions: 2θ scan range 3 to 40°, step size 0.02° and speed 0.2 s/step.
Form stability experiment of crystalline forms: Placed 20 mg abemaciclib mesylate in Preparation Example 1, abemaciclib mesylate Form 1, Form 2, Form 5, Form 6, and Form 8 of the present invention at 60° C. or at room temperature under dry conditions for 30 days, then carried out XRD crystalline form test.

## CCN1CCN(Cc2ccc(Nc3ncc(F)c(-c4cc(F)c5nc(C)n(C(C)C)c5c4)n3)nc2)CC1.CS(=O)(=O)O [Abemaciclib mesylate Form 6, N-(5-((4-ethylpiperazin-1-yl)methyl)pyridin-2-yl)-5-fluoro-4-(4-fluoro-1-isopropyl-2-methyl-1H-benzo[d]imidazol-6-yl)pyrimidin-2-amine methanesulfonate]
Listed as Form 6, methanesulfonate
  Test result after 30 day (XRD crystalline form): still kept their original crystalline forms
methanesulfonate
  Test result after 30 day (XRD crystalline form): Form 6
  form stability on storage (form kept or changed, appearance): kept its form unchanged

## CCN1CCN(Cc2ccc(Nc3ncc(F)c(-c4cc(F)c5nc(C)n(C(C)C)c5c4)n3)nc2)CC1.CS(=O)(=O)O [Abemaciclib mesylate Form 8, N-(5-((4-ethylpiperazin-1-yl)methyl)pyridin-2-yl)-5-fluoro-4-(4-fluoro-1-isopropyl-2-methyl-1H-benzo[d]imidazol-6-yl)pyrimidin-2-amine methanesulfonate]
Listed as Form 8, methanesulfonate
  Test result after 30 day (XRD crystalline form): still kept their original crystalline forms
methanesulfonate
  Test result after 30 day (XRD crystalline form): Form 8
  form stability on storage (form kept or changed, appearance): kept its form unchanged

## CCN1CCN(Cc2ccc(Nc3ncc(F)c(-c4cc(F)c5nc(C)n(C(C)C)c5c4)n3)nc2)CC1.CS(=O)(=O)O [Abemaciclib mesylate, N-(5-((4-ethylpiperazin-1-yl)methyl)pyridin-2-yl)-5-fluoro-4-(4-fluoro-1-isopropyl-2-methyl-1H-benzo[d]imidazol-6-yl)pyrimidin-2-amine methanesulfonate]
methanesulfonate
  Test result after 30 day (XRD crystalline form): Amorphous
Listed as amorphos abemaciclib mesylate, methanesulfonate
  form stability on storage (form kept or changed, appearance): weak crystalline state and discoloration appeared
Listed as amorphous abemaciclib mesylate, methanesulfonate
  form stability on storage (form kept or changed, appearance): weak crystalline state and discoloration appeared

## CCN1CCN(Cc2ccc(Nc3ncc(F)c(-c4cc(F)c5nc(C)n(C(C)C)c5c4)n3)nc2)CC1.CS(=O)(=O)O [Abemaciclib mesylate Form 1, N-(5-((4-ethylpiperazin-1-yl)methyl)pyridin-2-yl)-5-fluoro-4-(4-fluoro-1-isopropyl-2-methyl-1H-benzo[d]imidazol-6-yl)pyrimidin-2-amine methanesulfonate]
Listed as Form 1, methanesulfonate
  Test result after 30 day (XRD crystalline form): still kept their original crystalline forms
methanesulfonate
  Test result after 30 day (XRD crystalline form): Form 1
  form stability on storage (form kept or changed, appearance): kept its form unchanged

## CCN1CCN(Cc2ccc(Nc3ncc(F)c(-c4cc(F)c5nc(C)n(C(C)C)c5c4)n3)nc2)CC1.CS(=O)(=O)O [Abemaciclib mesylate Form 5, N-(5-((4-ethylpiperazin-1-yl)methyl)pyridin-2-yl)-5-fluoro-4-(4-fluoro-1-isopropyl-2-methyl-1H-benzo[d]imidazol-6-yl)pyrimidin-2-amine methanesulfonate]
Listed as Form 5, methanesulfonate
  Test result after 30 day (XRD crystalline form): still kept their original crystalline forms
methanesulfonate
  Test result after 30 day (XRD crystalline form): Form 5
  form stability on storage (form kept or changed, appearance): kept its form unchanged

## CCN1CCN(Cc2ccc(Nc3ncc(F)c(-c4cc(F)c5nc(C)n(C(C)C)c5c4)n3)nc2)CC1.CS(=O)(=O)O [Abemaciclib mesylate Form 2, N-(5-((4-ethylpiperazin-1-yl)methyl)pyridin-2-yl)-5-fluoro-4-(4-fluoro-1-isopropyl-2-methyl-1H-benzo[d]imidazol-6-yl)pyrimidin-2-amine methanesulfonate]
Listed as Form 2, methanesulfonate
  Test result after 30 day (XRD crystalline form): still kept their original crystalline forms
methanesulfonate
  Test result after 30 day (XRD crystalline form): Form 2
  form stability on storage (form kept or changed, appearance): kept its form unchanged
